According to PMC12084297, “Cytoplasmic connexin43-microtubule interactions promote glioblastoma stem-like cell maintenance and tumorigenicity” (Cell Death & Disease, 2025):
“Also recorded” adds a separate entry of the source.

Experiments:
VTC-037 GSCs [1] = assay: Gliosphere formation assay, VTC-037 GSCs; assay type: cell-based, human; settings: VTC-037, 10, 50 or 100 μM every other day, 2 weeks
Experimental: (§1) GSCs and PDX GBM22 cells were plated as single cell suspension in low-attachment 96-well plates (GSCs: 100–500 cells per well; GBM22 cells: 500–2000 cells per well), using methods similar to those reported previously. Cells were then treated with peptides every other day. 2 weeks later, gliospheres were observed using phase contrast microscopy on a Revolve microscope (Echo Laboratories). The number of gliospheres was then determined, while the gliosphere size was assessed by diameter measurement. To evaluate stem cell frequency in GSCs, gliosphere formation assay was performed with limiting cell dilutions with cells plated at varying densities in low-attachment 96-well plates. Cells were treated with peptides every other day, and after 2 weeks, gliosphere-positive wells were observed and scored using phase contrast microscopy on a Revolve microscope. The stem cell frequency was analyzed using the online data analysis program ELDA (Extreme Limiting Dilution Analysis).

[2] = tested on: Cx43/α-tubulin interaction; assay: Co-immunoprecipitation with α-tubulin antibody: Cx43 interaction with α-tubulin; assay type: cell-based, human; settings: VTC-037 GSCs, 50 μM, 24 h, cross-linked (DTBP)
Experimental: Prior to lysis, cross-linking was completed by incubating cells in DTBP (dimethyl 3,3’-dithiobispropionimidate; 2 mM in PBS) for 30 min at 37 °C followed by a glycine quench (100 mM glycine in PBS) for 15 min at room temperature. Cross-linked samples were lysed in RIPA buffer supplemented with Halt^TM Protease and Phosphatase Inhibitor Cocktail as described above, but without sonication. Co-immunoprecipitation (co-IP) assays were also performed without cross-linking; non-cross-linked samples were lysed using a co-IP lysis buffer (0.5% Triton X-100, 50 mM Tris HCl, 150 mM NaCl, 1 mM EDTA, 1 mM EGTA, 1 mM DTT, 0.1 mM Na3VO4, and 1 mM NaF) supplemented with Halt^TM Protease and Phosphatase Inhibitor Cocktail, without sonication. Protein concentration was quantified using the DC protein assay and a standard curve obtained with increasing concentrations of BSA, and 500 μg of total protein was used per reaction for co-IP. Inputs were removed prior to co-IP and denatured in Bolt LDS sample buffer as described above. Remaining protein lysates were incubated with Protein G Sepharose^TM 4 Fast Flow beads (GE Healthcare) for pre-clearance for 30 min at 4 °C. Samples were incubated with 2 μg of mouse anti-α-tubulin (MilliporeSigma, T6199) for cross-linked samples or mouse anti-Cx43 antibody (EMD Millipore; MAB3067) for non-cross-linked samples for 90 min at 4 °C. […]

VTC-037 GSCs [3] = assay: MTS viability, VTC-037 GSCs; assay type: cell-based, human; settings: 4 days
Experimental: (§2) Cells were plated in 96-well plates (2000–5000 cells per well) and treated the following day with TMZ (10, 50, or 100 μM), antennapedia, JM2-scrambled, or JM2 (10, 50, or 100 μM). After 4 days, cell viability was monitored following addition of MTS reagent (Promega) according to manufacturer’s instructions. The absorbance at 490 nm was measured using a SpectraMax i3 or iD3 microplate reader (Molecular Devices). For the caspase 3/7 activity assay, cells were plated in 96-well plates (2000 cells per well) and treated with TMZ or peptides as described above. The activity of caspase 3/7 was measured after 48 h using the Caspase-Glo® 3/7 assay (Promega) following the manufacturer’s instructions. Fold change of caspase 3/7 activity was defined as the ratio of caspase 3/7 luminescence in treated cells compared to controls.

VTC-001 GSCs = assay: Limiting dilution analysis (ELDA), VTC-001 GSCs; assay type: cell-based, human; settings: VTC-001, 100 μM every other day, 2 weeks; compared to JM2-scrambled or control
Experimental: as §1
All quantification was performed on experiments repeated at least three times. Statistical analysis was conducted with GraphPad Prism (GraphPad Software). Data were analyzed for significance using Student’s t test, one-way ANOVA with Tukey’s multiple comparisons test, and presented as mean ± SD. […] Statistical significance between experimental groups was determined using chi-square (χ²) tests within the ELDA framework. […]

HES1 mRNA = HES1 mRNA by RT-qPCR, VTC-037 GSCs; assay type: cell-based, human; settings: 50 μM, 24 h, compared to antennapedia alone or JM2-scrambled
Experimental: RNA was extracted using the PureLink^TM RNA mini extraction kit (Thermo Fisher) and on-column DNA digestion was completed using PureLink^TM DNase according to the manufacturer’s instructions. RNA was reverse transcribed to generate cDNA using the iScript^TM Reverse Transcription SuperMix for RT-qPCR kit (Bio-Rad Laboratories). Real-time PCR was performed using the SYBR select Master Mix for CFX (Thermo Fisher) in hard-shell 96-well PCR plates (Bio-Rad Laboratories) on a CFX Connect Real Time System (Bio-Rad Laboratories). Primer sequences used were: hNOTCH1_Fwd: 5’-CGCACAAGGTGTCTTCCAG-3’; hNOTCH1_Rev: 5’-CGGCGTGTGAGTTGATGA-3’; hHES1_Fwd: 5’-GGCTGGAGAGGCGGCTAA-3’; hHES1_Rev: 5’-[…]-3’; hHEY1_Fwd: 5’-[…]-3’; hHEY1_Rev: 5’-[…]-3’.

normal human astrocytes = assay: MTS viability, human astrocytes; assay type: cell-based; settings: 100 μM, 4 days
Experimental: as §2

How did the GSC-dependent gliosphere formation (VTC-037 GSCs [1]) turn out when VFFKGVKDRVKGRSD [JM2] was run?
The GSC-dependent gliosphere formation was “inhibits VTC-001, VTC-034, and VTC-037 GSC-dependent gliosphere formation in a dose-dependent manner”.

What about the “Gliosphere size (diameter)” value (VTC-037 GSCs [1]; n = 4) of the same sequence?
The value was “significant decrease in gliosphere size”.

What about the Gliosphere number (VTC-037 GSCs [1]; n = 6) of the same sequence?
The Gliosphere number was “significant decrease in gliosphere size as assessed by diameter measurement (Fig. 6B), and number”.

What about the “Cx43 interaction with α-tubulin (co-IP)” value [2] of the same sequence?
Its value is “decrease in Cx43 interaction with α-tubulin”.

What about the “GSC viability with JM2 alone in combination experiment (MTS)” value (VTC-037 GSCs [3]; VTC-037 adherent GSCs, 100 μM) of the same sequence?
The value was “significantly decreased GSC viability”.

And the “GSC survival (MTS)” value (VTC-037 GSCs [3]; VTC-037 adherent GSCs, 10, 50 or 100 μM)?
Its value is “significantly decreased VTC-001, VTC-034, and VTC-037 GSC survival when cultured as adherent cells in a dose-dependent manner”.

And the “GSC frequency / self-renewal (limiting dilution)” value (VTC-001 GSCs)?
Its value is “significant decrease in VTC-001, VTC-034, and VTC-037 GSC frequency”.

And the “Hes1 mRNA expression” value (HES1 mRNA)?
The value was “significantly decreased the expression of Notch downstream targets Hes1 and Hey1 at the transcription level”.

And the “Human astrocyte viability (MTS)” value (normal human astrocytes)?
The value was “did not observe a decrease in human astrocyte viability, even at higher JM2 concentrations; also recorded: no toxic effect of JM2 on normal human astrocytes in vitro”.
